Assays:
[1] = system: ^3 H-nifedipine (or ^3 H-nitrendipine) receptor binding on homogenates or partially-cleaned membranes of rabbit or guinea pig heart; assay: ^3 H-Nifedipine binding determinations (test A); conditions: nifedipine established as 100%
Method: A. ^3 H-Nifedipine binding determinations:
The determination is carried out on homogenates or on partially-cleaned membranes of rabbit or guinea pig heart. The reaction mixture (0.3 ml) consists of 0.2-0.8 mg of membrane protein, 1 nM of ^3 H-nifedipine (or 0.25 nM of ^3 H-nitrendipine) and various concentrations of the test substances. The incubation lasts 30 minutes at 25° C. or 37° C. and is stopped by dilution with the incubation buffer; a filtration is subsequently carried out. The filter-bound radioactivity is measured with a scintillation counter. Specific binding (i.e. receptor-bound) is defined as the differences between total and unspecific-bound radioactivity. The unspecific binding is determined in the presence of an excess of non-radioactive nifedipine (1 μM).
The activity (potency) of a compound in this test is defined by the IC50 and % maximum inhibition values (% max. inhibition). The IC50 is the substance concentration (in mol/l) which produces a half-maximum inhibition of the specific ^3 H-nifedipine (or ^3 H-nitrendipine) binding. The maximum inhibition of the specific binding is given by the % maximum inhibition value; this value is established as 100% for the reference compound nifedipine. Both parameters are extrapolated from a concentration-binding curve.

[2] = system: Coronary artery strips of dogs (KCl contracture; tension-dependent calcium channel); assay: Relaxation of KCl contracture in coronary artery strips of dogs (test B); type: cell-based, dog; conditions: Canis lupus familiaris, KCl 84.7 mM, 37° C., read-out: IC50 (half-maximum relaxation of a KCl contracture)
Method: B. Coronary artery strips of dogs:
In this experiment spiral strips (2-2.5 mm wide and 10 mm long) of coronary arteries of dogs are cut and hung up in an organ chamber under an initial tension of 1.5 g. These strips are pre-incubated for a duration of about 1 to 2 hours in Krebs-Henseleit buffer solution which is gassed with Oxycarbon (a mixture of 95% oxygen and 5% carbon dioxide) at 37° C. The relaxing activity of one of these substances is subsequently tested on a KCl (84.7 mM) contracture by the addition of increasing concentrations of the test substance to the organ chamber. The calcium channel-blocking activity of the test substances can therefore be established, as the KCl contracture occurs exclusively by means of calcium flow through the tension-dependent calcium channel.
The activity of a test substance in this test is given by the IC50 value. This value is defined as the substance concentration (in mol/l) which produces a half-maximum relaxation of a KCl contracture. This value is also extrapolated from the resulting concentration-activity curve.

narcotized dog = assay: Haemodynamic parameters in the narcotized dog (test C); type: in vivo; conditions: 0.1 mg/kg i.v.
Source text: C. Haemodynamic parameters in the narcotized dog:
The 4 most important measurement parameters (with respective measurement units) of the haemodynamic experiment are: (1) CBF: Coronary Blood Flow (in ml/min)--the velocity of blood flow through the coronary arteries; (2) HR: heart rate (in beats/min)--the heart frequency; (3) BP: blood pressure (in mm Hg)--the blood pressure; and (4) dp/dt: rate of increase in left ventricular pressure (in mm Hg/sec) as a measurement of the contractility force of the heart. The values are given as the % maximum variation from the initial value (Δ%) per dosage administered.
There is thus obtained not only an overall picture of the activity of the substance, but also an estimation as to the potential selectivity for a specific part of the circulatory system in the entire organism. After the administration of an anaesthetic, the dog is intubated and respired artificially. Blood pH, pCO2, pO2 and haemoglobin are measured hourly with a blood-gas analyser. The blood pressure (systolic and diastolic) is measured with a probe in the aorta abdominalis. The heart frequency is recorded by means of a tachometer, which is disengaged from the pressure pulse. For the other measurements the heart must first be opened in order that a probe can be inserted in the left ventricle (heart chamber) for the pressure measurements (dp/dt). The coronary blood flow is measured with a flowing probe in the left coronary artery (descendens).

| Structure (SMILES) | % max inhib. (maximum inhibition of specific binding) [1] | IC50 [2] | BP (blood pressure), % maximum variation from the initial value (narcotized dog) | CBF (Coronary Blood Flow), % maximum variation from the initial value (narcotized dog) | HR (heart rate), % maximum variation from the initial value (narcotized dog) | dp/dt (rate of increase in left ventricular pressure), % maximum variation from the initial value (narcotized dog) |
| --- | --- | --- | --- | --- | --- | --- |
| COCC(=O)O[C@]1(CCN(C)CCc2ccc(OC)c(OC)c2)CCc2cc(F)ccc2[C@@H]1C(C)C (relative stereo) [A, 2-[2-[(3,4-Dimethoxyphenethyl)methylamino]ethyl]-6-fluoro-1,2,3,4-tetrahydro-1α-isopropyl-2α-naphthyl methoxyacetate] | 77% | 0.0028 µM | -18 Δ % | +93 Δ % | -3 Δ % | -5 Δ % |
| COc1ccc(CCN(C)CC[C@@]2(OC(C)=O)CCc3cc(OC)c(OC)cc3[C@@H]2C(C)C)cc1OC (relative stereo) [D, 6,7-dimethoxy-2-[2-[(3,4-dimethoxyphenethyl)methylamino]ethyl]-1,2,3,4-tetrahydro-1α-isopropyl-2α-naphthyl acetate] | 82% | 0.087 µM | -9 Δ % | +58 Δ % | -15 Δ % | +3 Δ % |
| COCC(=O)O[C@]1(CCN(C)CCc2ccc(OC)c(OC)c2)CCc2cc(OC)c(OC)cc2[C@@H]1C(C)C (relative stereo) [E, 6,7-dimethoxy-2-[2-[(3,4-dimethoxyphenethyl)methylamino]ethyl]-1,2,3,4-tetrahydro-1α-isopropyl-2α-naphthyl methoxyacetate] | 88% | 0.02 µM | -12 Δ % | +65 Δ % | -7 Δ % | +22 Δ % |
| COCC(=O)O[C@]1(CCN(C)CCc2ccc(OC)c(OC)c2)CCc2cc(F)ccc2[C@@H]1C(C)C [B, [1S,2S]-2-[2-[(3,4-dimethoxyphenethyl)methylamino]ethyl]-6-fluoro-1,2,3,4-tetrahydro-1-isopropyl-2-naphthyl methoxyacetate] | 100% | 0.0061 µM | -23 Δ % | +100 Δ % | -20 Δ % | +13 Δ % |
| COCC(=O)O[C@@]1(CCN(C)CCc2ccc(OC)c(OC)c2)CCc2cc(F)ccc2[C@H]1C(C)C [C, [1R,2R2-[2[(3,4Dimethoxyphenethyl)methylamino]ethyl6-fluoro-1,2,3,4-tetraydro-1-isopropyl-2-napthyl methoxyacetate] | 73% | 0.078 µM | -16 Δ % | +58 Δ % | -5 Δ % | +26 Δ % |

Reference: patent US4680310A, “Tetrahydronaphthalene derivatives” (Hoffmann-La Roche Inc., priority 1984, dated 1987)
